These results are taken from US5164376A, “Method for treating retroviral infections with aryl-(2-pyrryl) keytone compound” (Hoffmann-LaRoche Inc., priority 1990, dated 1992).

Entries after “also recorded” stand apart in the source; their conditions may differ.

One data set has as its system TAT. Kind of data set: anti-TAT assay: SeAP reporter gene expression under control of HIV-LTR in COS cells co-transfected with TAT. The data set is classed as cell-based. The note with it: 1, 10 and 100 μM added 24 h post transfection, assayed 48 h later, three independent assays, values only in FIG. I. An excerpt: FIG. I: Illustrates anti-TAT activity of Compound II. COS cells are co-transfected with TAT and Secreted Alkaline Phosphatase (SeAP) genes. The SeAP gene, under the control of the HIV-LTR (responsive to TAT activation) or the RSV-LTR (unresponsive to TAT action) serves as a monitor or reporter gene. SeAP activity in the HIV-LTR combination but not the RSV-LTR combination serves as a measure of TAT activity. Cells containing the RSV-LTR co-transfected gene combination serve as an indicator of the non-specific toxicity of added test compounds. The black bars represent the percent inhibition of SeAP activity by Compound II when the SeAP gene is under the control of HIV-LTR. The hatched bars represent the effect of […] on SeAP activity when the SeAP gene is regulated by RSV-LTR. […] The figure includes results from three separate assays.
Compound II was tested for anti-TAT activity in an anti-TAT assay described in copending patent application Case Docket No. 8320 filed on the same day as the instant application and hereby incorporated by reference. […] The anti-TAT activity is measured by the percent inhibition of SeAP gene expression under the control of HIV-LTR.

In data set [1] the test system is HIV-1 NIT strain. Kind of data set: inhibition of HIV-cytopathic effect in infected CD4+ CEM cells (live-cell count by trypan blue exclusion). Type of data set: cell-based. The settings on record: MOI=1, 4 days, values only in FIG. II. As for the experimental part:
(§1) FIGS. II Illustrates the anti-HIV activity of Compound II when tested according to the protocol set forth in Example 2. The open bars and the hatch bars are live-cell counts of infected and uninfected cells respectively. The filled circles are percentage of cell which were stained with antibody from AIDS patients. The duration of treatment for compound II was 4 days.
(§2) High titer virus stocks (HIV-1 NIT strain) were grown in CD4^+ CR1O cells in RMPI-1640 media (Gibco Laboratories) supplemented with 10% fetal calf serum and 0.1 mg/ml Gentamicin. The collected media were filtered through a 0.8 Micron filter and virus isolates were concentrated 100 fold and stored at -80° C.
(§3) CD4^+ CEM cells, propagated in the same medium, were incubated for 60 minutes at 37° C. with diluted stock virus at MOI=1. Cells were washed three times with phosphate buffered saline and resuspended in the medium at 2 x 10^5 cells/ml. Various quantities of Compound II were added. Four days after infection, numbers of live cells were counted by trypan blue exclusion [Mitsuya, et al. Proc. Natl. Acad. Sci. 83:1911 (1986)]. At the same time, aliquots of cells were fixed with acetone and stained with antibodies from AIDS patients, followed by a second staining with fluorescein-conjugated goat anti-human IgG (Cappel). […]

In another data set the test system is COS cells. Kind of data set: parallel cytotoxicity assay: SeAP gene expression under control of RSV-LTR (unresponsive to TAT) in COS cells. Type of data set: cell-based. The note with it: values only in FIG. I.
The subject of data set [2] is HIV-1 NIT strain. Kind of data set: inhibition of viral antigen production (percentage of cells stained with antibodies from AIDS patients). The data set is classed as cell-based. The settings on record: CEM cells, MOI=1, 4 days; values only in FIG. II. As for the experimental part: as §1, §2, §3
Another data set relates to HIV. The settings on record: most patients; cited from earlier work.

Regarding `NCC(=O)Nc1ccc(Cl)cc1C(=O)c1ccc[nH]1` [Compound II, 2-glycinamido-5-chlorophenyl (2-pyrryl) ketone], in the data set on TAT, the “anti-TAT activity (inhibition of SeAP gene expression under HIV-LTR)” value is on record as “exhibits anti-TAT activity; also recorded: specific inhibitor of TAT”. In the data set with HIV-1 NIT strain [1], the “inhibition of HIV-cytopathic effect” value is listed as “inhibition of HIV-cytopathic effect”. For the same compound, the “nonspecific toxicity (effect on SeAP activity under RSV-LTR)” value with COS cells is “does not exhibit nonspecific autotoxicity”. In the data set on HIV-1 NIT strain [2], the “inhibition of viral antigen production” value is “inhibition of HIV-cytopathic effect and viral antigen production”.

Consider `Nc1ccn([C@H]2CC[C@@H](CO)O2)c(=O)n1` [ddC], for which, in the data set with HIV, the “virustatic range (dose)” value was 0.005-0.25 mg/kg body weight.
